Results reported in article PMC8193794 (Biochemistry, 2020).
Like-named read-outs stand apart in the source and are kept apart here.

Assays:
biotin-humanin [1] = assay: ELISA
biotin-humanin [2] = assay: ELISA; remark: listed apart in the source
biotin-humanin [3] = assay: ELISA; remark: listed apart in the source
biotin-humanin [4] = assay: ELISA; remark: listed apart in the source
Humanin (HN) peptide = assay: ELISA
Aβ40-HN interactions = conditions: cited from earlier work
[5] = tested on: amyloid oligomers and fibrils in H1299 medium; assay: Dot blot of H1299 medium with exogenous IGFBP-3; assay type: cell-based, human
[6] = tested on: A549 human lung cancer cell; conditions: residues 215–232 of IGFBP-3 bind hyaluronan, blocking CD44; cited from earlier work
[7] = tested on: 6E10-bound Aβ complex from A549 conditioned medium; assay: 6E10 capture ELISA of A549 conditioned medium with exogenous IGFBP-3; assay type: binding, human
Aβ40 = assay: Thioflavin T; assay type: biochemical; conditions: 37 °C
[8] = tested on: Aβ / amyloid oligomers and fibrils in A549 medium; assay: Dot blot of immunodepleted A549 medium; assay type: cell-based, human; conditions: A549 medium immunodepleted of the named component; for anti-A11 oligomer signal after immunodepletion: Figure 9C,F
[9] = tested on: 6E10-bound Aβ complex from H1299 conditioned medium; assay: 6E10 capture ELISA of H1299 conditioned medium with exogenous IGFBP-3; assay type: binding, human
[10] = tested on: HN-Aβ (Aβ40 or Aβ42) complex; assay: ELISA, HN-Aβ binding with increasing AChE, without or with IGFBP-3
Aβ in A549 medium = assay: Aβ ELISA; assay type: cell-based, human; conditions: Figure 11A; A549 medium immunodepleted of the named component
H1299 cells [11] = assay: MTT assay, H1299 cells; assay type: cell-based, human; conditions: medium immunodepleted of the named component, 48 h
Aβ in H1299 medium = assay: Aβ ELISA; assay type: cell-based, human; conditions: Figure 11B; H1299 medium immunodepleted of the named component
H1299 cells [12] = assay: Apoptosis, annexin V ELISA, H1299 cells; assay type: cell-based, human; conditions: medium immunodepleted of the named component, 48 h
[13] = tested on: amyloid complexes in A549 conditioned medium; assay type: binding, human
[14] = tested on: amyloid oligomers and fibrils in A549 medium; assay: Dot blot of A549 medium with exogenous IGFBP-3; assay type: cell-based, human; conditions: 400 nM vs 100 nM IGFBP-3, A549 medium
A549 cells [15] = assay: MTT assay, A549 cells; assay type: cell-based, human; conditions: medium immunodepleted of the named component, 48 h
A549 cells [16] = assay: Apoptosis, annexin V ELISA, A549 cells; assay type: cell-based, human; conditions: medium immunodepleted of the named component, 48 h
Aβ42 = assay: Thioflavin T; assay type: biochemical; conditions: 37 °C
[17] = target: Amyloid-β (Aβ) of the conditioned media of A549 and H1299 cells (human (endogenous in A549 and H1299)); assay: ELISA
[18] = target: Amyloid-β (Aβ) of the conditioned media of A549 and H1299 cells (human (endogenous in A549 and H1299)); assay: ELISA; remark: listed apart in the source
[19] = tested on: Aβ from H1299 conditioned medium bound to 6E10; assay: 6E10 capture ELISA of H1299 conditioned medium with exogenous HN; assay type: binding, human
[20] = tested on: Aβ / amyloid oligomers and fibrils in H1299 medium; assay: Dot blot of immunodepleted H1299 medium; assay type: cell-based, human; conditions: Figure 9B,E; H1299 medium immunodepleted of the named component
[21] = tested on: complex between HN and Aβ42; assay: ELISA, IGFBP-3 competition for the HN-Aβ42 complex; assay type: binding; conditions: AChE (100 nM), HN (100 nM)
[22] = tested on: Aβ from A549 conditioned medium bound to 6E10; assay: 6E10 capture ELISA of A549 conditioned medium with exogenous HN; assay type: binding, human
Aβ (12–28) and Aβ (1–16) = conditions: cited from earlier work
[23] = tested on: complex between HN and Aβ40; assay: ELISA, IGFBP-3 competition for the HN-Aβ40 complex; assay type: binding; conditions: AChE (100 nM), HN (100 nM)
[24] = Figure 8A, added IGFBP-3, cell line not stated
[25] = Figure 8A, cell line not stated
[26] = Figure 8B, A549 medium, added IGFBP-3

Work on “Recombinant human insulin-like growth factor binding protein-3 (IGFBP-3) (from UniProt P17936 28-291) (natural protein)” yielded an IC50 (biotin-humanin [1]) of 74 nM, an IC50 (biotin-humanin [2]) of 39 nM and an IC50 (biotin-humanin [3]) of 58 nM. For the same molecule, the IC50 (biotin-humanin [4]) was 93 nM and the percent decrease of the biotinylated Aβ signal on HN at 0.2 μM IGFBP-3 (Humanin (HN) peptide) was 50%.

For “HN (5–15, L11S) (GFSCLLSLTSE; Humanin; UniProt Q8IVG9 5-15, looked up, variant L11S)”, the “inhibition of Aβ40-HN interactions” value (Aβ40-HN interactions) is given as “reduced the ability of HN (5–15) to compete with the Aβ40-HN interactions”.

In the case of “HN (5–15) (GFSCLLLLTSE; Humanin; UniProt Q8IVG9 5-15, looked up, fragment)”, the “inhibition of Aβ40-HN interactions” value (Aβ40-HN interactions) is listed as “more effective inhibitor of Aβ40-HN interactions than Aβ (17–28)”.

For IGFBP-3, the “anti-LOC signal, cell media in which increase was observed” value ([5]; 100 nM IGFBP-3 added, H1299 medium (no increase)) is given as “only in the A549 medium”, the “further effect of 400 nM IGFBP-3 on A11/LOC signals” value ([5]; 400 nM vs 100 nM IGFBP-3, H1299 medium) is given as “did not have any further effect” and the A549 cell viability [6] is given as “reducing A549 human lung cancer cell viability”. For the same molecule, the “IGFBP-3 detection in 6E10 complex after adding 400 nM IGFBP-3” value ([7]; A549 medium, Figure 8A-C) was “did not result in detection of IGFBP-3”, the “A11 (amyloid oligomer) signal fold increase relative to control” value [7, 24] was ~ 3.9 fold and the “LOC (amyloid fibrils) signal fold increase relative to control” value [7, 24] was ~ 1.7 fold. For the same molecule, the “HN in 6E10 complex upon addition of 50 nM IGFBP-3” value [7, 25] was “diminished”, the “HN in 6E10 complex upon addition of 100 nM IGFBP-3” value [7, 25] was “completely depleted” and the “A11 signal fold increase relative to control without IGFBP-3” value [7, 26] was ~ 3.9 fold. For the same molecule, the “LOC signal fold increase relative to control with no IGFBP-3” value [7, 26] was ~ 1.59 fold, the “effect of 2 μM IGFBP-3 on HN block of Aβ40 aggregation (ThT)” value (Aβ40; Aβ40 2 μM, HN 2 μM, IGFBP-3 2 μM, 335 min, no AChE) was “reduced the ability of HN to block aggregation of Aβ, but only partially” and the “effect of 6 μM IGFBP-3 on HN block of Aβ40 aggregation (ThT)” value (Aβ40; Aβ40 2 μM, HN 2 μM, IGFBP-3 6 μM, 335 min, no AChE) was “completely abolished the ability of HN to block the aggregation of Aβ”. The “Aβ40 aggregation with 6 μM IGFBP-3 in presence of AChE and HN (ThT)” value (Aβ40; Aβ40, AChE, HN each 2 μM, IGFBP-3 6 μM) was “aggregation kinetics comparable to those of Aβ incubated with only AChE”, the “anti-A11 oligomer signal after immunodepletion” value [8] was “No difference” and the “IGFBP-3 detection in 6E10 complex after adding 400 nM IGFBP-3” value ([9]; Figure 8A-C) was “did not result in detection of IGFBP-3”. The “LOC signal with added IGFBP-3” value ([9]; Figure 8C) was “no signal was observed”, the “A11 signal fold increase relative to control with no IGFBP-3” value ([9]; Figure 8C, added IGFBP-3) was ~ 2.5 fold and the HN-Aβ binding signal ([10]; 2 μM IGFBP-3, HN and Aβ 0.2 μM) was “completely abolished the signal”. The “effect of immunodepletion on total Aβ or oligomer” value (shortened to “effect of immunodepletion”) (Aβ in A549 medium) was “No effects”, the “cell viability after treatment with immunodepleted medium” value (shortened to “cell viability after treatment”) (H1299 cells [11]) was “no effect” and the “effect of immunodepletion” value (Aβ in H1299 medium) was “No effects”. For the same molecule, the “apoptosis after treatment with immunodepleted medium” value (from here on “apoptosis after treatment”) (H1299 cells [12]) was “no effect”, the “detection in complex with any of the antibodies tested (6E10, 4G8, A11, LOC)” value [13] was “No IGFBP-3 was detected” and the “further effect of 400 nM IGFBP-3 on A11/LOC signals” value [14] was “did not have any further effect”. The “cell viability after treatment” value (A549 cells [15]) was “increased the A549 cell viability”, the “apoptosis after treatment” value (A549 cells [16]) was “reduced apoptosis” and the “effect of 2 μM IGFBP-3 on HN block of Aβ42 aggregation (ThT)” value (Aβ42; Aβ42 2 μM, HN 2 μM, IGFBP-3 2 μM, 335 min, no AChE) was “reduced the ability of HN to block aggregation of Aβ, but only partially”. The “effect of 6 μM IGFBP-3 on HN block of Aβ42 aggregation (ThT)” value (Aβ42; Aβ42 2 μM, HN 2 μM, IGFBP-3 6 μM, 335 min, no AChE) was “completely abolished the ability of HN to block the aggregation of Aβ” and the “Aβ42 aggregation with 6 μM IGFBP-3 in presence of AChE and HN (ThT)” value (Aβ42; Aβ42, AChE, HN each 2 μM, IGFBP-3 6 μM) was “aggregation kinetics comparable to those of Aβ incubated with only AChE”.

With Humanin (HN) peptide the fold increase of the HN signal at 400 nM added HN over no added HN [17] was 2.5 fold, the fold decrease of AChE bound to Aβ with added HN [18] was 1.5 fold and the fold increase of the HN signal at 400 nM added HN over no added HN [18] was 2.5 fold.

With Aβ42 [reference compound] the “aggregation kinetics compared to Aβ40 (ThT)” value (Aβ42; Aβ42 2 μM, 335 min) was “faster aggregation kinetics”.

B1: AChE (protein)
chain: EGREDAELLVTVRGGRLRGIRLKTPGGPVSAFLGIPFAEPPMGPRRFLPPEPKQPWSGVVDATTFQSVCYQYVDTLYPGFEGTEMWNPNRELSEDCLYLNVWTPYPRPTSPTPVLVWIYGGGFYSGASSLDVYDGRFLVQAERTVLVSMNYRVGAFGFLALPGSREAPGNVGLLDQRLALQWVQENVAAFGGDPTSVTLFGESAGAASVGMHLLSPPSRGLFHRAVLQSGAPNGPWATVGMGEARRRATQLAHLVGCPPGGTGGNDTELVACLRTRPAQVLVNHEWHVLPQESVFRFSFVPVVDGDFLSDTPEALINAGDFHGLQVLVGVVKDEGSYFLVYGAPGFSKDNESLISRAEFLAGVRVGVPQVSDLAAEAVVLHYTDWLHPEDPARLREALSDVVGDHNVVCPVAQLAGRLAAQGARVYAYVFEHRASTLSWPLWMGVPHGYEIEFIFGIPLDPSRNYTAEEKIFAQRLMRYWANFARTGDPNEPRDPKAPQWPPYTAGAQQYVSLDLRPLEVRRGLRAQACAFWNRFLPKLLSATDTLDEAERQWKAEFHRWSSYMVHWKNQFDHYSKQDRCSDL
In the case of B1, the “AChE bound to Aβ (6E10 capture)” value [19] is reported as “Barely detectable levels”, the “aggregation of Aβ40 with AChE (ThT)” value (Aβ40; Aβ40 2 μM, AChE 2 μM, 335 min) is reported as “increased aggregation with changes in both the lag phase and the final ThT fluorescence value” and the “Aβ detected with anti-6E10 after immunodepletion” value [20] is reported as “no change”. For the same molecule, the “Aβ detected with anti-6E10 after immunodepletion” value ([8]; Figure 9B,E) was “decreased the amount of Aβ”, the “anti-A11 oligomer signal after immunodepletion” value [8] was “No difference” and the “effect of added AChE on IGFBP-3 competition with Aβ42 for HN” value [21] was “no difference”. For the same molecule, the “change in signal with increasing AChE in presence of IGFBP-3” value ([10]; 0.2 or 2 μM IGFBP-3 present) was “no change in the signal”, the “cell viability after treatment” value (H1299 cells [11]) was “no effect” and the “effect of immunodepletion” value (Aβ in H1299 medium) was “No change”. For the same molecule, the “apoptosis after treatment” value (H1299 cells [12]) was “no effect”, the “AChE bound to Aβ (6E10 capture)” value [22] was “detectable levels” and the “cell viability after treatment” value (A549 cells [15]) was “increased the A549 cell viability”. For the same molecule, the “apoptosis after treatment” value (A549 cells [16]) was “reduced apoptosis”, the “binding to Aβ fragments” value (Aβ (12–28) and Aβ (1–16)) was “binds to Aβ (12–28) and the Aβ (1–16) peptide” and the “effect of added AChE on IGFBP-3 competition with Aβ40 for HN” value [23] was “no difference”. The “aggregation of Aβ42 with AChE (ThT)” value (Aβ42; Aβ42 2 μM, AChE 2 μM, 335 min) was “increased aggregation with changes in both the lag phase and the final ThT fluorescence value”.
